Reference: the supplement of paper PMC10307832

Experiments:
Assay in all cases: relative viability (nuclei count vs DMSO), 5 days (fraction); higher = more cells survive
[1] = compound: CS(=O)(=O)c1ccc(C(=O)Nc2ccc(Cl)c(-c3ccccn3)c2)c(Cl)c1 [Vismodegib] + CS(=O)(=O)CCNCc1ccc(-c2ccc3ncnc(Nc4ccc(OCc5cccc(F)c5)c(Cl)c4)c3c2)o1 [Lapatinib] (partner 2 µM)
Procedure, shortened: (§1)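 Medians of duplicate plates are given as relative viability. That measure is the nuclei count in treated wells divided by the count in vehicle wells. Counts were taken on 4× images of lung cancer cell lines in 1536-well plates, 5 days after pin-tool dosing the day after seeding with one drug alone or a fixed anchor-drug dose plus five library-drug doses (not always all listed) in √10 steps.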

[2] = compound: CS(=O)(=O)c1ccc(C(=O)Nc2ccc(Cl)c(-c3ccccn3)c2)c(Cl)c1 [Vismodegib] + COc1cc2c(Oc3ccc(NC(=O)C4(C(=O)Nc5ccc(F)cc5)CC4)cc3F)ccnc2cc1OCCCN1CCOCC1 [Foretinib] (partner 0.25 µM)
Procedure, shortened: as §1

[3] = compound: CS(=O)(=O)c1ccc(-c2cnc(N)c(C(=O)Nc3ccccc3)n2)cc1 [VE-821] + CC(=O)c1c(C)c2cnc(Nc3ccc(N4CCNCC4)cn3)nc2n(C2CCCC2)c1=O [Palbociclib] (partner 0.5 µM)
Procedure, shortened: as §1

[4] = compound: CS(=O)(=O)c1ccc(C(=O)Nc2ccc(Cl)c(-c3ccccn3)c2)c(Cl)c1 [Vismodegib] + CC(C)C[C@H](NC(=O)[C@H](Cc1ccccc1)NC(=O)c1cnccn1)B(O)O [Bortezomib] (partner 0.002 µM)
Procedure, shortened: as §1

Cell Line	relative viability ([1]; first compound 0.08 µM)	relative viability ([1]; first compound 0.253 µM)	relative viability ([1]; first compound 0.8 µM)	relative viability ([1]; first compound 2.53 µM)	relative viability ([1]; first compound 8 µM)	relative viability ([2]; first compound 0.08 µM)	relative viability ([2]; first compound 0.253 µM)	relative viability ([2]; first compound 0.8 µM)	relative viability ([2]; first compound 2.53 µM)	relative viability ([2]; first compound 8 µM)	relative viability ([3]; first compound 0.08 µM)	relative viability ([3]; first compound 0.253 µM)	relative viability ([3]; first compound 0.8 µM)	relative viability ([3]; first compound 2.53 µM)	relative viability ([3]; first compound 8 µM)	relative viability ([4]; first compound 0.08 µM)	relative viability ([4]; first compound 0.253 µM)	relative viability ([4]; first compound 0.8 µM)	relative viability ([4]; first compound 2.53 µM)	relative viability ([4]; first compound 8 µM)
NCI-H647	0.99	0.998	1.17	1.01	1.12	1.24	1.22	1.26	1.02	1.14	0.385	0.297	0.349	0.371	0.15	1.01	0.925	1.12	1.05	1.1
NCI-H650	0.967	0.695	0.623	0.841	0.899	0.792	0.999	0.988	1.03	0.951	0.365	0.341	0.331	0.438	0.352	0.855	0.735	0.795	0.732	0.687
NCI-H661	0.464	0.488	0.534	0.483	0.493	1.07	1.02	0.99	0.961	1.09	0.409	0.453	0.415	0.4	0.413	0.821	0.806	0.756	0.837	0.829
NCI-H727	0.814	0.653	0.585	0.826	0.874	0.973	0.867	0.896	0.761	0.792	0.737	0.726	0.618	0.638	0.659	0.876	0.835	0.905	0.939	0.77
NCI-H838	0.888	1.01	0.987	0.99	1.09	0.987	0.979	0.997	1.06	1.03	0.222	0.186	0.218	0.266	0.191	0.603	1.11	0.679	0.817	1.05
NCI-H1355	0.93	0.923	0.844	0.951	0.957	0.92	0.988	0.904	0.997	0.987	0.455	0.349	0.287	0.366	0.361	1.23	1.18	1.12	1.1	1.11
NCI-H1437	0.741	0.791	0.783	0.816	0.762	1.23	1.22	1.25	1.21	1.26	0.305	0.262	0.36	0.335	0.284	0.408	0.597	0.594	0.541	0.539
NCI-H1650	0.704	0.767	0.666	0.806	0.748	1.08	0.938	1.13	1.07	1.21	0.342	0.324	0.329	0.4	0.336	0.196	0.314	0.198	0.205	0.191
NCI-H1651	0.869	0.867	0.852	0.83	0.89	0.818	0.604	0.782	0.739	0.781	0.523	0.547	0.502	0.565	0.519	1	0.936	0.953	0.619	0.882
NCI-H1666	0.72	0.616	0.453	0.558	0.879	1.01	0.935	1.05	0.925	0.936	0.635	0.685	0.644	0.713	0.621	0.755	0.765	0.906	0.722	0.956
NCI-H1734	1.04	1.02	0.96	0.957	1	0.875	0.869	0.876	0.772	0.946	0.462	0.363	0.325	0.337	0.532	0.89	0.835	0.949	0.858	1.03
NCI-H1755	1	1	1.06	1.02	1.04	0.894	0.91	0.947	0.96	0.913	0.429	0.437	0.423	0.363	0.424	0.903	0.947	1.05	0.966	1.01
NCI-H1915	0.936	0.975	0.995	0.901	0.978	1.02	1.06	1.05	1.05	1.08	0.558	0.532	0.54	0.547	0.452	1.05	0.976	0.985	0.905	0.953
NCI-H1975	0.848	0.819	0.966	0.803	0.946	0.993	0.996	0.933	0.832	0.964	0.601	0.473	0.349	0.607	0.415	0.381	0.396	0.374	0.373	0.398
NCI-H1993	0.745	1.02	0.806	0.788	0.777	0.863	0.654	0.782	0.773	0.675	0.673	0.619	0.561	0.635	0.537	1.03	1.24	0.983	1.05	1.08
NCI-H2009	0.901	0.891	0.892	0.899	0.788	1.23	1.23	1.29	1.19	1.23	0.204	0.215	0.234	0.18	0.188	0.947	0.986	0.976	0.967	1.04
